Assays:
SK-HEP-1 = assay: Cell growth test (Cell Titer Blue) SK-HEP-1; assay type: cell-based; conditions: Homo sapiens, SK-HEP1, 72 h, SK-HEP-1, Liver cancer, 3 days
Experimental: (§1) Moreover, the compound of Example 14 was subjected to a cell growth test using various types of cell lines.
(§2) All cell lines other than the below-noticed cells were each seeded in a well plate, in which an RPMI-1640 medium supplemented with penicillin/streptomycin and FBS with a final concentration of 10% was placed. The human prostate cancer cell line VCaP (ATCC) was seeded in a well plate, in which DMEM medium supplemented with penicillin/streptomycin and FBS with a final concentration of 10% was placed. […] Thereafter, using Enspire Multimode Plate Reader (PerkinElmer), the amount of fluorescence at an excitation wavelength of 531 nm and a fluorescence wavelength of 615 nm was measured. Since the amount of fluorescence is in proportion to the concentration of a florescent product resorufin that is converted from resazurin as a redox dye by living cells, the amount of fluorescence was used as an indicator of the number of living cells. The growth inhibition percentage of the test compound in each concentration was calculated according to the following equation. Growth inhibition percentage (%)=(amount of fluorescence in test compound−added well)/(amount of fluorescence in DMSO−added well)×100 […]

LNCaP = assay: Cell growth test (Cell Titer Blue) LNCaP; assay type: cell-based; conditions: Homo sapiens, 72 h, Prostate cancer, 3 days
Experimental: as §1, §2

SW-620 = assay: Cell growth test (Cell Titer Blue) SW-620; assay type: cell-based; conditions: Homo sapiens, 72 h, SW-620, Colon cancer, 3 days
Experimental: as §1, §2

SU-DHL-4 = assay: Cell growth test (Cell Titer Blue) SU-DHL-4; assay type: cell-based; conditions: Homo sapiens, 72 h, SU-DHL-4, Lymphoma, 3 days
Experimental: as §1, §2

[1] = tested on: human lymphoma cell line OCI-Ly7; assay: Cell growth test (Cell Titer Blue) OCI-LY7; assay type: cell-based; conditions: 72 h, 3 days
Experimental: as §1, §2

A2780 = assay: Cell growth test (Cell Titer Blue) A2780; assay type: cell-based; conditions: Homo sapiens, 72 h, A2780, Ovarian cancer, 3 days
Experimental: as §1, §2

K-562 = assay: Cell growth test (Cell Titer Blue) K-562; assay type: cell-based; conditions: Homo sapiens, K562, 72 h, K-562, Chronic myeloid leukemia, 3 days
Experimental: as §1, §2

c-Myc gene = assay: Intratumoral expression of c-Myc gene in MV4-11-subcutaneously-transplanted cancer-bearing mouse models, RT-PCR; assay type: in vivo; conditions: 30 mg/kg
Experimental: According to an RT-PCR method, a fluctuation in the intratumoral expression of a c-Myc gene in MV4-11-subcutaneously-transplanted cancer-bearing mouse models, to which a test compound had been administered, was analyzed.
The compound of Example 14 was dissolved in a solvent (a 0.5% methyl cellulose aqueous solution or water containing 1 equivalent of hydrochloric acid), and the obtained solution was then orally administered to the mice at a dose of 30 mg/kg. As a negative control, a solvent administration group (vehicle) involving administration of a 0.5% methyl cellulose aqueous solution was established. Moreover, the test compound was dissolved in a solvent (a normal saline containing 1 equivalent of hydrochloric acid), and the obtained solution was then intravenously administered to the mice at a dose of 30 mg/kg. As a negative control, a solvent administration group (vehicle) involving administration of a normal saline was established. From MV4-11-subcutaneously-transplanted cancer-bearing mice involving oral or intravenous administration of the test compound, tumor was excised 1, 3, 6 and 24 hours (hr) after the administration. […] A PCR reaction was carried out by the same method as that of Test Example 5, and a fluctuation in the gene expression of GAPDH and c-Myc in the tumor was then evaluated.

Raji = assay: Cell growth test (Cell Titer Blue) Raji; assay type: cell-based; conditions: Homo sapiens, 72 h, Lymphoma (DSMZ), 3 days
Experimental: as §1, §2

MM.1S = assay: Cell growth test (Cell Titer Blue) MM.1S; assay type: cell-based; conditions: Homo sapiens, MM1.S, 72 h, Myeloma, 3 days
Experimental: as §1, §2

MDA-MB-468 = assay: Cell growth test (Cell Titer Blue) MDA-MB-468; assay type: cell-based; conditions: Homo sapiens, 72 h, MDA-MB-468, Breast cancer, 3 days
Experimental: as §1, §2

CCn1c(=O)cc(C2CCN(C)CC2)c2cc(C(=O)N(C)c3ccc(C)cc3)ccc21 [Example 14, 1-Ethyl-N-methyl-N-(4-methylphenyl)-4-(1-methylpiperidin-4-yl)-2-oxo-1,2-dihydroquinoline-6-carboxamide] gave a GI50 (SK-HEP-1) of 2.5 µM, a GI50 (LNCaP) of 0.064 µM and a GI50 (SW-620) of 0.273 µM. It also gave a GI50 (SU-DHL-4) of 0.049 µM, a GI50 [1] of 0.274 µM and a GI50 (A2780) of 0.582 µM. For the same compound, the GI50 (K-562) was 0.017 µM, the “intratumoral expression of the c-Myc gene” value (c-Myc gene; intravenously, tumor excised 1, 3, 6 and 24 hr after administration (FIG. 4)) was “decreased” and the “intratumoral expression of the c-Myc gene” value (c-Myc gene; orally, tumor excised 1, 3, 6 and 24 hr after administration (FIG. 5)) was “decreased”. It also gave a GI50 (Raji) of 0.203 µM, a GI50 (MM.1S) of 0.084 µM and a GI50 (MDA-MB-468) of 1.2 µM.

— US10987349B2, “Antitumor agent and bromodomain inhibitor” (FUJIFILM Corporation, priority 2016, dated 2021)
